Where a name gives a salt, the structure may show the parent alone.
tested on: circulating lymphocytes; experiment: not given; settings: animals and man, literature; cited from earlier work

| Compound | effect on circulating lymphocytes |
| --- | --- |
| CCCCCCCCc1ccc(CCC(N)(CO)CO)cc1 [FTY720] | reduce circulating lymphocytes in animals and man |

molecular target: T1, human S1P1 receptor (Homo sapiens, UniProt P21453); experiment: S1P1 GTPγS assay; type: biochemical; settings: [35S]-GTPγS SPA, membranes of rat hepatoma cells expressing human S1P1, agonist
T1 construct: expressed in transfected cells; membranes
T1 sequence (P21453 whole entry): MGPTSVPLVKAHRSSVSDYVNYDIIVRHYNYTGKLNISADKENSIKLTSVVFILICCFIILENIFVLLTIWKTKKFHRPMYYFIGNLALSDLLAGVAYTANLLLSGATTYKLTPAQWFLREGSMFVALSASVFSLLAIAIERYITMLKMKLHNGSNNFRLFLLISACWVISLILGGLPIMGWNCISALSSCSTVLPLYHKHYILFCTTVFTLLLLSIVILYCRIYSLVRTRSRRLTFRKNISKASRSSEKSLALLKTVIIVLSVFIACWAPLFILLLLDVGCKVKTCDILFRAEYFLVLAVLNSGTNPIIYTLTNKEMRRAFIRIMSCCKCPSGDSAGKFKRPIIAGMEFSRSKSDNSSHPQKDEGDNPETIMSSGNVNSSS
Protocol: (§1) For membrane preparations all steps were performed at 4° C. Rat hepatoma cells stably expressing the human S1P1 receptor or Rat Basophilic Leukaemia cells (RBL) stably expressing human S1P3 receptor were grown to 80% confluency before being harvested into 10 ml Phospho-Buffered Saline (PBS) and centrifuged at 1200 rpm for 5 minutes. After removal of the supernatant, the pellet was re-suspended and cells were homogenised within a glass Waring blender for 2 bursts of 15 secs in 200 mls of buffer (50 mM HEPES, 1 mM leupeptin, 25 μg/ml bacitracin, 1 mM EDTA, 1 mM PMSF, 2 μM pepstatin A). The blender was plunged into ice for 5 mins after the first burst and 10-40 mins after the final burst to allow foam to dissipate. The material was then spun at 500 g for 20 mins and the supernatant spun for 36 mins at 48,000 g. The pellet was resuspended in the same buffer as above but without PMSF and pepstatin A. The material was then forced through a 0.6 mm needle, made up to the required volume, (usually ×4 the volume of the original cell pellet), aliquoted and stored frozen at −80° C.
as §1, with “All” for “For membrane preparations all”, “Cells” for “Rat hepatoma cells stably expressing the human S1P1 receptor or Rat Basophilic Leukaemia cells (RBL) stably expressing human S1P3 receptor were grown to 80% confluency before being harvested into 10 ml Phospho-Buffered Saline (PBS) and centrifuged at 1200 rpm for 5 minutes. After removal of the supernatant, the pellet was re-suspended and cells”
Human S1P1 rat hepatoma membranes (1.5 μg/well) were adhered to a wheatgerm agglutinin (WGA)-coated scintillation proximity assay (SPA) beads (0.125 mg/well) in assay buffer (HEPES 20 mM, MgCl2 10 mM, NaCl 100 mM and pH adjusted to 7.4 using KOH 5 M, GDP 10 μM FAC (final assay concentration) and saponin 90 μg/ml FAC was also added).
After 30 minutes pre-coupling on ice the bead and membrane suspension was dispensed into a white Greiner polypropylene LV384-well plate ([…]), containing 0.1 μl of the compound. […] [^35S]-GTPγS (0.5 nM final radioligand conc) made up in assay buffer was then added to agonist plates. The final assay cocktail (10.1 μl) was then centrifuged at 1000 rpm for 5 minutes then read immediately on a Viewlux reader.
All test compounds were dissolved in DMSO at a concentration of 10 mM and were prepared in 100% DMSO using a 1 in 4 dilution step to provide 11 point dose response curves. The dilutions were transferred to the assay plates ensuring that the DMSO concentration was constant across the plate for all assays.
All data was normalized to the mean of 16 high and 16 low control wells on each plate. A four parameter curve fit was then applied.
S1P1 expressing RH7777 membranes (1.5 μg/well) […] were homogenised by passing through a 23G needle. These were then adhered to WGA-coated SPA beads (0.125 mg/well) in assay buffer (HEPES 20 mM, MgCl2 10 mM, NaCl 100 mM and pH adjusted to 7.4 using KOH 5M). GDP […] FAC and saponin 90 μg/ml FAC were also added.
After 30 minutes precoupling on ice, the bead and membrane suspension was dispensed into white Greiner polypropylene LV 384-well plates (5 μl/well), containing 0.1 μl of compound. 5 μl/well [^35S]-GTPγS (0.5 nM for S1P1 or 0.3 nM for S1P3 final radioligand concentration) made in assay buffer was then added to the plates. The final assay cocktail (10.1 μl) was then sealed, spun on a centrifuge, then read immediately on a Viewlux instrument.

| Compound | EC50 |
| --- | --- |
| CC(C)Oc1ccc(-c2nc(-c3cccc4c3CCNC4)no2)cc1Cl [Example 1, 5-(5-{3-chloro-4-[(1-methylethyl)oxy]phenyl}-1,2,4-oxadiazol-3-yl)-1,2,3,4-tetrahydroisoquinoline hydrochloride] | < 0.1 µM |
| CC(C)Oc1ccc(-c2nc(-c3cccc4c3CCNC4)no2)cc1C#N [Example 2, 2-[(1-methylethyl)oxy]-5-[3-(1,2,3,4-tetrahydro-5-isoquinolinyl)-1,2,4-oxadiazol-5-yl]benzonitrile hydrochloride] | < 0.01 µM |
| CC(C)Oc1ccc(-c2nc(-c3cccc4c3CCNC4)no2)cc1C#N [Example 3, 2-[(1-methylethyl)oxy]-5-[3-(1,2,3,4-tetrahydro-5-isoquinolinyl)-1,2,4-oxadiazol-5-yl]benzonitrile] | < 0.1 µM |
| CC(C)Oc1ccc(-c2nc(-c3cccc4c3CCN(C)C4)no2)cc1C#N [Example 7, 2-[(1-methylethyl)oxy]-5-[3-(2-methyl-1,2,3,4-tetrahydro-5-isoquinolinyl)-1,2,4-oxadiazol-5-yl]benzonitrile] | < 0.1 µM |
| Cc1c(-c2noc(-c3ccc(OC(C)C)c(C#N)c3)n2)ccc2c1CCNC2 [Example 11, 2-[(1-Methylethyl)oxy]-5-[3-(5-methyl-1,2,3,4-tetrahydro-6-isoquinolinyl)-1,2,4-oxadiazol-5-yl]benzonitrile trifluoroacetic acid salt] | < 0.1 µM |

The remaining lines, values ahead:

| EC50 | Compound |
| --- | --- |
| < 0.01 µM | CC(C)Oc1ccc(-c2nc(-c3cccc4c3CCN(CC(=O)O)C4)no2)cc1C#N [Example 4, [5-(5-{3-cyano-4-[(1-methylethyl)oxy]phenyl}-1,2,4-oxadiazol-3-yl)-3,4-dihydro-2(1H)-isoquinolinyl]acetic acid hydrochloride] |
| < 0.1 µM | CC(C)Oc1ccc(-c2nc(-c3cccc4c3CCN(CCC(=O)O)C4)no2)cc1C#N [Example 5, 3-[5-(5-{3-cyano-4-[(1-methylethyl)oxy]phenyl}-1,2,4-oxadiazol-3-yl)-3,4-dihydro-2(1H)-isoquinolinyl]propanoic acid hydrochloride] |
| < 0.01 µM | CC(C)Oc1ccc(-c2nc(-c3cccc4c3CCN(CCCC(=O)O)C4)no2)cc1C#N [Example 6, 4-[5-(5-{3-cyano-4-[(1-methylethyl)oxy]phenyl}-1,2,4-oxadiazol-3-yl)-3,4-dihydro-2(1H)-isoquinolinyl]butanoic acid hydrochloride] |
| < 0.01 µM | Cc1c(-c2noc(-c3ccc(OC(C)C)c(Cl)c3)n2)ccc2c1CCN(CCC(=O)O)C2 [Example 8, 3-[6-(5-{3-Chloro-4-[(1-methylethyl)oxy]phenyl}-1,2,4-oxadiazol-3-yl)-5-methyl-3,4-dihydro-2(1H)-isoquinolinyl]propanoic acid] |
| < 0.1 µM | Cc1c(-c2noc(-c3ccc(OC(C)C)c(Cl)c3)n2)ccc2c1CCN(CC(=O)O)C2 [Example 9, [6-(5-{3-Chloro-4-[(1-methylethyl)oxy]phenyl}-1,2,4-oxadiazol-3-yl)-5-methyl-3,4-dihydro-2(1H)-isoquinolinyl]acetic acid] |
| < 0.1 µM | Cc1c(-c2noc(-c3ccc(OC(C)C)c(C#N)c3)n2)ccc2c1CCN(CC(=O)O)C2 [Example 12, [6-(5-{3-Cyano-4-[(1-methylethyl)oxy]phenyl}-1,2,4-oxadiazol-3-yl)-5-methyl-3,4-dihydro-2(1H)-isoquinolinyl]acetic acid] |
| < 0.1 µM | Cc1c(-c2noc(-c3ccc(OC(C)C)c(C#N)c3)n2)ccc2c1CCN(CCC(=O)O)C2 [Example 13, 3-[6-(5-{3-Cyano-4-[(1-methylethyl)oxy]phenyl}-1,2,4-oxadiazol-3-yl)-5-methyl-3,4-dihydro-2(1H)-isoquinolinyl]propanoic acid sodium salt] |

tested on: not given; experiment: not given; settings: clinical studies, first 24 hours of treatment, literature; cited from earlier work

| Compound | bradycardia |
| --- | --- |
| CCCCCCCCc1ccc(CCC(N)(CO)CO)cc1 [FTY720] | results in bradycardia in the first 24 hours of treatment |
